Experimental data reported in patent US10858314B2, “Urea derivative or pharmacologically acceptable salt thereof” (KYORIN PHARMACEUTICAL CO., LTD., priority 2015, dated 2020).

Key:
human FPRL1 = biological target: T1, human FPRL1 (Homo sapiens, UniProt P25090); experiment: Measurement test of agonist activity on human FPRL1 (test of calcium mobilization in HEK293 cells transfected with human FPRL1 and Gα15); format: cell-based; conditions: read-out: Efficacy EC50
T1 construct: expressed in transfected cells; host or cells: HEK293 (JCRB9068, NIBIO), transient co-transfection of pCMV-script vectors with Lipofectamine 2000
T1 sequence (P25090 1-351): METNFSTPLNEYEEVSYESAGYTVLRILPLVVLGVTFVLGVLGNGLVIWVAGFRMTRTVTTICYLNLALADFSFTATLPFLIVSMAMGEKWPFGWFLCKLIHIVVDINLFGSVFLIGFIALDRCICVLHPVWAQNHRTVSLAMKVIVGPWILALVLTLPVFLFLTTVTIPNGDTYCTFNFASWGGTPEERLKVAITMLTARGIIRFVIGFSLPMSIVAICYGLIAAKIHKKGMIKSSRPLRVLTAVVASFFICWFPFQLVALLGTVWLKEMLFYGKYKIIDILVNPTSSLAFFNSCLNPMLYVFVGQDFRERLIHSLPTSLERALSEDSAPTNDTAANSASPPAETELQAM
Text: Measurement Test of Agonist Activity on Human FPRL1
(1-1) Construction of Human FPRL1 Expression Vector
Human FPRL (SEQ ID NO: 3) was amplified in a PCR reaction from cDNA derived from a monocytic leukemia cell line THP-1 (TIB-202, ATCC) as a template using a forward primer shown in SEQ ID NO: 1, a reverse primer shown in SEQ ID NO: 2, and KOD-plus-ver. 2 (KOD-211, TOYOBO CO., LTD.). […] 2 (LGK-201, TOYOBO CO., LTD.). The ligation product was transformed into DH5α (DNA-901, TOYOBO CO., LTD.), cultured on a 100 μg/mL kanamycin-containing LB medium, and purified with HiSpeed Plasmid Maxi Kit (12662, QIAGEN).
(1-2) Construction of Human Gα15 Expression Vector
2. The amplified PCR product and pCMV-script vector were digested with Hind III and XhoI, and the resultant digest was ligated with Ligation high ver. 2. The ligation product was transformed into DH5α, cultured on a 100 μg/mL kanamycin-containing LB medium, and purified with HiSpeed Plasmid Maxi Kit.
(2-1) Method for Culturing and Subculturing HEK293
HEK293 (JCRB9068, NIBIO) was cultured in an incubator at 5% CO2 and 37° C. using DMEM (11885-092, GIBCO) containing 10% FBS and 1× Penicillin-Streptomycin (15140-122, GIBCO).
(2-2) Introduction of Human FPRL1 and Gα15 Expression Vectors
The cells were inoculated in a Collagen Type 1 coated 6-well plate (4810-010, IWAKI) to 5×10^5 cells/2.5 mL/well and cultured overnight. On the next day, human FPRL1 and Gα15 expression vectors were introduced using Lipofectamine 2000 transfection reagent (11668-019, Life technologies). First, the human FPRL1 and Gα15 expression vectors were diluted with Opti-MEM I Reduced Serum Medium (31985-070, GIBCO) to 2 μg/250 μL/well and Lipofectamine 2000 transfection reagent was diluted with Opti-MEM I Reduced Serum Medium to be 4 μL/250 μL/well. The vectors and reagent were softly diffused, and incubated at room temperature for 5 minutes. The vector solution was mixed with Lipofectamine 2000 transfection reagent in equal amounts. In order to form a complex of the vectors and Lipofectamine 2000 transfection reagent, the mixture was incubated at room temperature for 20 minutes, and added at 500 μL/well to the medium of inoculated cells. The treated cells were cultured for 24 hours, inoculated in Poly-D-Lysine coated 96-well plate (356640, BD Biosciences) at a cell density of 7×10^4 cells/100 μL/well, and cultured for another 24 hours. The resultant cells were used in a measurement test of calcium mobilization in the cells.
(3) Evaluation of Agonist Activity on Human FPRL1 (Test of Calcium Mobilization in Cell)
An appropriate amount of each test compound was first weighed, and dissolved to 10^−2 M by addition of dimethyl sulfoxide (DMSO). […] The plate dispensed with compound solutions was set in Flexstation (Molecular Devices, LLC.) until measurement.
Subsequently, 10 mL of assay buffer and 100 μL of probenecid solution (dissolved by addition of 1 mL of assay buffer to a 250 mM stock) were sufficiently mixed and dissolved in Fluo-4 NW dye mix. The medium of cells inoculated on the previous day was removed, the dissolved Fluo-4 NW dye mix was added in an amount of 90 μL/well, and a reaction was caused in the dark at 37° C. for 45 minutes. The cells after the reaction and chips for addition of the compound were set in Flexstation, and variation in fluorescence intensity over time after addition of the compound was measured [amount of added compound=10 μL (final concentration 10^−5 M to 10^−12 M), excitation wavelength: 485 nm, measured wavelength: 525 nm, 1.5 sec×54 read]. A value was calculated by subtracting a base value during addition of DMSO from the maximum value of relative fluorescence unit, and analyzed. All the measurement data were analyzed with Prism 4 that was a data analysis tool.

[1] = system: neutrophilic infiltration in mouse lung; experiment: Effect on lipopolysaccharide-induced neutrophilic infiltration in mouse lung (BAL fluid neutrophil count); format: in vivo; conditions: oral, 30 minutes before LPS aerosol, BAL fluid neutrophils after 5 hours, mouse (BALB/c, male)
Description: Effect of Lipopolysaccharide Induction on Neutrophilic Infiltration in Mouse Lung
A compound to be tested was orally administrated to a mouse (BALB/c, male), and after 30 minutes, the mouse was placed in a plastic container. Lipopolysaccharide (0.3 mg/mL) dissolved in physiological saline was aerosolized with an ultrasonic wave nebulizer (NE-U17, OMRON Corporation), and exposed to the mouse for 10 minutes. After 5 hours, the anesthetized mouse was sacrificed by exsanguination. A cannula was inserted in the respiratory tract and bronchoalveolar lavage (BAL) with 1 mL of […] liquid containing 0.4% sodium citrate was carried out. This operation was repeated 3 times, to obtain a BAL fluid. The BAL fluid was centrifuged at 4° C. and ×200 g for 5 minutes, and the pellet was suspended in a physiological saline containing 0.1% BSA. The number of white blood cells was counted using Turks solution with a microscope, and the total white blood cell count was calculated. The white blood cells were fixed on a glass slide using Cytospin 3 (Thermo BioAnalysis Japan K. K.). The cells were stained with Diff-Quik (SYSMEX INTERNATIONAL REAGENTS CO., LTD.), and the number thereof was counted with a microscope, and the neutrophil ratio was calculated. The neutrophil ratio was multiplied by the total white blood cell count to calculate the total neutrophil count. An effect of the compound to be tested represents a percentage (%) of suppression ratio relative to the neutrophil count in a control.

EC50 (human FPRL1) | Compound | also measured
0.3 nM | CN(CCO)c1nc([C@H](Cc2ccc(Cl)cc2)NC(=O)Nc2ccc(Cl)cc2)no1 [Example 18-11, (S)-1-(4-chloro-phenyl)-3-(2-(4-chlorophenyl)-1-(5-((2-hydroxy-ethyl)(methyl)-amino)-1,2,4-oxadiazol-3-yl)ethyl)urea] | 
8.45 nM | COc1ccc(CC(CO)NC(=O)Nc2ccc(Br)cc2)cc1 (centres unmarked) [Example 31-25, 1-(4-bromo-phenyl)-3-(1-hydroxy-3-(4-methoxyphenyl)-propan-2-yl)urea] | 
0.57 nM | N#Cc1ccc(C[C@H](NC(=O)Nc2ccc(Cl)cc2)c2nnn(CCO)n2)cc1 [Example 1-5, (S)-1-(4-chlorophenyl)-3-{2-(4-cyanophenyl)-1-[2-(2-hydroxyethyl)-2H-tetrazol-5-yl]ethyl}urea] | 
0.3 nM | COc1ccc(C[C@H](NC(=O)Nc2ccc(Cl)cc2)c2ocnc2C(=O)N(C)C)cc1 [Example 14-4, (S)-5-(1-(3-(4-chlorophenyl)ureido)-2-(4-methoxyphenyl)-ethyl)-N,N-dimethyloxazole-4-carboxamide] | 
0.25 nM | COc1ccc(C[C@H](NC(=O)Nc2ccc(Cl)cc2)c2nnn(CCO)n2)cc1 [Example 1-1, (−)-(S)-1-(4-Chlorophenyl)-3-{1-[2-(2-hydroxyethyl)-2H-tetrazol-5-yl]-2-(4-methoxyphenyl)ethyl}urea] | Suppression Ratio (%) ([1]; dose 1 mg/kg): 95.7%
0.66 nM | N/C(=N\C(=O)CCO)[C@H](Cc1ccc(Cl)cc1)NC(=O)Nc1ccc(Cl)cc1 [Example 26-5 (B), (S)-N-{3-(4-chlorophenyl)-2-[3-(4-chloro-phenyl)ureido]-1-iminopropyl}-3-hydroxypropan-amide] | Suppression Ratio (%) ([1]; dose 3 mg/kg): 86%
0.22 nM | CCc1ccc(C[C@H](NC(=O)Nc2ccc(Cl)cc2)c2nnn(CCO)n2)cc1 [Example 1-11, (S)-1-(4-chlorophenyl)-3-{2-(4-ethylphenyl)-1-[2-(2-hydroxyethyl)-2H-tetrazol-5-yl]ethyl}urea] | 
0.22 nM | CNC(=O)c1ncoc1[C@H](Cc1ccc(OC)cc1)NC(=O)Nc1ccc(Cl)cc1 [Example 14-3, (S)-5-(1-(3-(4-chlorophenyl)ureido)-2-(4-methoxyphenyl)ethyl)-N-methyl-oxazole-4-carboxamide] | 
0.34 nM | COc1ccc(CC(NC(=O)Nc2ccc(Cl)cc2)/C(N)=N/O)cc1 (centres unmarked) [Example 4] | 
0.2 nM | N/C(=N\OCCO)[C@H](Cc1ccc(Cl)cc1)NC(=O)Nc1ccc(Cl)cc1 [Example 22-2, (+)-(S,Z)-3-(4-chlorophenyl)-2-(3-(4-chloro-phenyl)ureido)-N′-(2-hydroxy-ethoxy)propan-imidamide] | 
1.41 nM | COc1ccc(CC(Cc2nnc(O)o2)NC(=O)Nc2ccc(Cl)cc2)cc1 (centres unmarked) [Example 1-75, 1-(4-chlorophenyl)-3-(1-(5-hydroxy-1,3,4-oxadiazol-2-yl)-3-(4-methoxyphenyl)propan-2-yl)urea] | 
0.63 nM | CCc1ccc(C[C@H](NC(=O)Nc2ccc(Cl)cc2)c2noc(N(C)CCO)n2)cc1 [Example 1-15, (S)-1-(4-chlorophenyl)-3-(2-(4-ethylphenyl)-1-{5-[(2-hydroxyethyl)(methyl)amino]-1,2,4-oxadiazol-3-yl}ethyl)urea] | Suppression Ratio (%) ([1]; dose 3 mg/kg): 95.7%
0.41 nM | COc1ccc(CC(NC(=O)Nc2ccc(Cl)cc2)/C(N)=N/C(=O)CO)cc1 (centres unmarked) [Example 26-11, N-{2-[3-(4-chlorophenyl)-ureido]-1-imino-3-(4-methoxy-phenyl)propyl}-2-hydroxyacetamide] | 
0.15 nM | COc1ccc(C[C@H](NC(=O)Nc2ccc(Cl)cc2)/C(N)=N/C(=O)CCO)cc1 [Example 26-2, (S)-N-{2-[3-(4-chlorophenyl)-ureido]-1-imino-3-(4-methoxy-phenyl)propyl}-3-hydroxypropanamide] | 
4.12 nM | COc1ccc(C[C@H](CO)NC(=O)Nc2ccc(Cl)cc2)cc1 [Example 31-29] | Suppression Ratio (%) ([1]; dose 10 mg/kg): 95.5%
0.56 nM | CCc1ccc(C[C@H](NC(=O)Nc2ccc(Cl)cc2)/C(N)=N/OCCO)cc1 [Example 19-1, (+)-(S,Z)-2-[3-(4-Chlorophenyl)ureido]-3-(4-ethylphenyl)-N′-(2-hydroxyethoxy)propanimidamide] | Suppression Ratio (%) ([1]; dose 3 mg/kg): 96.9%
0.17 nM | COc1ccc(C[C@H](NC(=O)Nc2ccc(Cl)cc2)c2nnc(CCO)o2)cc1 [Example 1-20, (S)-1-(4-chlorophenyl)-3-{1-[5-(2-hydroxyethyl)-1,3,4-oxadiazol-2-yl]-2-(4-methoxyphenyl)ethyl}urea] | Suppression Ratio (%) ([1]; dose 3 mg/kg): 94%
1.37 nM | O=C(Nc1ccc(F)cc1)N[C@@H](Cc1ccc(Cl)cc1)c1nnn(CCO)n1 [Example 1-8, (−)-(S)-1-{2-(4-chlorophenyl)-1-[2-(2-hydroxyethyl)-2H-tetrazol-5-yl]ethyl}-3-(4-fluorophenyl)urea] | 
0.73 nM | CCc1ccc(C[C@H](NC(=O)Nc2ccc(Cl)cc2)c2nnc(CCO)o2)cc1 [Example 1-73, (−)-(S)-1-(4-chlorophenyl)-3-(2-(4-ethylphenyl)-1-(5-(3-hydroxyethyl)-1,3,4-oxadiazol-2-yl)ethyl)urea] | 
2.7 nM | O=C(Nc1ccc(Cl)cc1)N[C@@H](Cc1ccc(Cl)cc1)c1nnn(CCO)n1 [Example 1-7, (−)-(S)-1-(4-chlorophenyl)-3-{2-(4-chlorophenyl)-1-[2-(2-hydroxyethyl)-2H-tetrazol-5-yl]ethyl}urea] | 
